Source: patent publication US10441654B2 (priority 2014, dated 2019)
“Also recorded” adds a separate entry of the source.

Columns and labels:
[1] = tested on: interferon stimulated gene (ISG) expression; format: cell-based; settings: cells treated with VSVΔ51 and SMC, 20 hours
[2] = tested on: Jak/Stat signalling downstream of IFNβ; format: cell-based
[3] = tested on: CT-2A intracranial tumors; settings: mouse, in vivo
[4] = tested on: SNB75 cells; assay: cells; format: cell-based; settings: Homo sapiens, SNB-75, read-out: EC50 of SMC therapy
[5] = tested on: VSVΔ51; settings: mouse, 50 mg/kg
[6] = tested on: cancer cell lines (n=28); format: cell-based
[7] = tested on: TRAIL and TNFα; format: cell-based, human
[8] = tested on: cancer cells; format: cell-based
[9] = tested on: VSVΔ51; format: cell-based
[10] = tested on: IFNβ; format: cell-based
[11] = tested on: EMT6 mammary carcinoma; settings: mouse, in vivo
[12] = mouse, in vivo
[13] = tested on: 786-0 cells; format: cell-based
[14] = tested on: TNFα; format: cell-based, mouse
[15] = tested on: CT-26 mouse colon carcinoma; settings: in vivo
[16] = tested on: cIAP1/2; assay: cIAP1/2 knockdown in EMT6 tumors (western blotting); format: in vivo, mouse; settings: 50 mg/kg oral gavage
[17] = tested on: EMT6 cells; format: cell-based, mouse
[18] = tested on: cancer cells; format: cell-based; remark: listed apart in the source
[19] = tested on: TNFα; settings: mouse, in vivo, ip
[20] = tested on: CT-2A, K1580 glioblastoma cells; format: cell-based, mouse
[21] = mouse, in vivo; remark: listed apart in the source
[22] = tested on: TNFα; settings: mouse, in vivo, ip; remark: listed apart in the source

## CN[C@@H](C)C(=O)N[C@H](C(=O)N1CCC[C@H]1c1nc(C(=O)c2ccc(F)cc2)cs1)C1CCCCC1 [LCL161]
[1]
  ISG gene expression in response to oncolytic VSV infection: no bearing
[2]
  activation of Jak/Stat signalling downstream of IFNβ: do not alter
[3]
  neurotoxicity: did not result in any overt neurotoxicity
[4]
  EC50: > 2500 nM
[5]
  viral replication and spread in vivo: No differences in viral kinetics
[6]
  cancer cell lines in which SMC treatment enhanced sensitivity to VSVΔ51: 54%
  enhanced sensitivity: EC50 of VSVΔ51 upon SMC treatment: 10-10,000 fold
[7]
  induction of TRAIL and TNFα by IFNβ: potentiated
[8]
  synergy with VSVΔ51 to cause cancer cell death: synergize
[9]
  VSVΔ51 infectivity in or spread through tumor cells: does not alter
  growth kinetics of VSVΔ51: does not affect the growth kinetics
[10]
  IFNβ secretion: slightly lower levels
[11]
  cure rate: 17%
  tumor growth and survival: decrease in the rate of tumor growth and a modest extension in survival; also recorded: slightly extended mouse survival
  tumor growth rates and survival: slightly delayed EMT6 tumor growth rates and slightly extended the survival
[12]
  tolerability: well tolerated
[12]; po, 50 mg/kg
  weight loss: minimal transient weight loss
[13]
  cell death outside of the zone of virus infection: dramatic cell death
[14]
  cellular production of TNFα upon VSV infection: 5- to 7 fold percentage increase
[15]
  tumor growth rate and survival: modest decrease of the tumor growth rate and a slight extension of survival
[16]
  duration of cIAP1/2 knockdown in tumors: at least 24 hrs
  duration of cIAP1/2 knockdown in tumors, in some cases: 48 to 72 h

## CC(C)Cn1cnc2c(N)nc3ccccc3c21 [imiquimod]
[17]
  bystander death of SMC treated EMT6 cells: required splenocytes

## IFNα
[3]
  neurotoxicity: did not result in any overt neurotoxicity
[11]
  tumor growth and survival: no effect on EMT6 tumor growth or overall survival
[18]
  synergy with SMC recapitulated by recombinant cytokine: recapitulated

## IFNγ
[18]
  synergy with SMC recapitulated by recombinant cytokine: recapitulated

## SM-164
[8]
  synergy with VSVΔ51 to cause cancer cell death: synergize

## poly(I:C)
[19]
  TNFα levels from the brain: marked up-regulation of TNFα levels
[20]
  glioblastoma cell death by brain lysates of treated mice in the presence of SMCs: enhanced cell death in the presence of SMCs
[21]
  toxicity of direct intracranial administration: without overt toxicities
[17]
  bystander death of SMC treated EMT6 cells: led to EMT6 cell death directly
[11]
  tumor growth: no bearing on tumor growth
[22]
  TNFα in serum: robust expression of TNFα
